Measured values reported in patent publication US11083707B2, “Substituted indoline derivatives as dengue viral replication inhibitors” (JANSSEN PHARMACEUTICALS, INC., priority 2017, dated 2021).
Where two headings read alike, the source gives them in different places.

What was measured:
DENV-2 16681 strain = experiment: DENV-2 antiviral assay (eGFP fluorescence, Vero cells); type: cell-based, Dengue virus; details: DENV-2 16681 eGFP, MOI 0.5, 3 days
Description: The antiviral activity of all the compounds of the invention was tested against the DENV-2 16681 strain which was labeled with enhanced green fluorescent protein (eGPF). The culture medium consists of minimal essential medium supplemented with 2% of heat-inactivated fetal calf serum, 0.04% gentamycin (50 mg/mL) and 2 mM of L-glutamine. Vero cells, obtained from ECACC, were suspended in culture medium and 25 μL was added to 384-well plates (2500 cells/well), which already contain the antiviral compounds. Typically, these plates contain a 5-fold serial dilution of 9 dilution steps of the test compound at 200 times the final concentration in 100% DMSO (200 nL). […] Finally, each plate contains wells which are assigned as virus controls (containing cells and virus in the absence of compound), cell controls (containing cells in the absence of virus and compound) and medium controls (containing medium in the absence of cells, virus and compounds). To the wells assigned as medium control, 25 μL of culture medium was added instead of Vero cells. Once the cells were added to the plates, the plates were incubated for 30 minutes at room temperature to allow the cells to distribute evenly within the wells. Next, the plates were incubated in a fully humidified incubator (37° C., 5% CO2) until the next day. Then, DENV-2 strain 16681, labeled with eGFP, was added at a multiplicity of infection (MOI) of 0.5. Therefore, 15 μL of virus suspension was added to all the wells containing test compound and to the wells assigned as virus control. In parallel, 15 μL of culture medium was added to the medium and cell controls. Next, the plates were incubated for 3 days in a fully humidified incubator (37° C., 5% CO2). At the day of the read out, the eGFP fluorescence was measured using an automated fluorescence microscope at 488 nm (blue laser). Using an in-house LIMS system, inhibition dose response curves for each compound were calculated and the half maximal effective concentration (EC50) was determined. Therefore, the percent inhibition (I) for every test concentration is calculated using the following formula: I=100*(ST-SCC)/(SVC-SCC), ST, SCC and SVC are the amount of eGFP signal in the test compound, cell control and virus control wells, respectively. The EC50 represents the concentration of a compound at which the virus replication is inhibited with 50%, as measured by a 50% reduction of the eGFP fluorescent intensity compared to the virus control. The EC50 is calculated using linear interpolation (Table 1).

in vitro [1] = details: African green monkey
DENV-1 strain TC974#666 = experiment: Tetravalent RT-qPCR assay Protocol A, serotype 1; type: cell-based; details: Dengue virus, DENV1, 72 h; RT-qPCR serotype 1 TC974#666, Vero cells, day 3
Description: (§1) The antiviral activity of the compounds of the invention was tested against DENV-1 strain TC974#666 (NCPV), DENV-2 strain 16681, DENV-3 strain H87 (NCPV) and DENV-4 strain H241 (NCPV) in a RT-qPCR assay. Therefore, Vero cells were infected with either DENV-1, or -2, or -3, or -4 in the presence or absence of test compounds. At day 3 post-infection, the cells were lysed and cell lysates were used to prepare cDNA of both a viral target (the 3′UTR of DENV; Table 2) and a cellular reference gene (β-actin, Table 2). Subsequently, a duplex real time PCR was performed on a Lightcycler480 instrument. The generated Cp value is inversely proportional to the amount of RNA expression of these targets. Inhibition of DENV replication by a test compound results in a shift of Cp's for the 3′UTR gene. On the other hand, if a test compound is toxic to the cells, a similar effect on β-actin expression will be observed. The comparative ΔΔCp method is used to calculate EC50, which is based on the relative gene expression of the target gene (3′UTR) normalized with the cellular housekeeping gene (β-actin). In addition, CC50 values are determined based on the Cp values acquired for the housekeeping gene β-actin.
(§2) The culture medium consisted of minimal essential medium supplemented with 2% of heat-inactivated fetal calf serum, 0.04% gentamycin (50 mg/mL) and 2 mM of L-glutamine. Vero cells, obtained from ECACC, were suspended in culture medium and 75 μL/well was added in 96-well plates (10000 cells/well), which already contain the antiviral compounds. […] In addition, each plate contains wells which are assigned as virus controls (containing cells and virus in the absence of compound) and cell controls (containing cells in the absence of virus and compound). Once the cells were added in the plates, the plates were incubated in a fully humidified incubator (37° C., 5% CO2) until the next day. Dengue viruses serotype-1, 2, 3 and 4 were diluted in order to obtain a Cp of ˜22-24 in the assay. Therefore, 25 μL of virus suspension was added to all the wells containing test compound and to the wells assigned as virus control. In parallel, 25 μL of culture medium was added to the cell controls. Next, the plates were incubated for 3 days in a fully humidified incubator (37° C., 5% CO2). After 3 days, the supernatant was removed from the wells and the cells were washed twice with ice-cold PBS (˜100 μL). The cell pellets within the 96-well plates were stored at −80° C. for at least 1 day. Next, RNA was extracted using the Cells-to-CT™ lysis kit, according to the manufacturer's guideline (Life Technologies). The cell lysates can be stored at −80° C. or immediately used in the reverse transcription step.
(§3) In preparation of the reverse transcription step, mix A (table 3A) was prepared and 7.57 μL/well was dispensed in a 96-well plate. After addition of 5 μL of the cell lysates, a five minute denaturation step at 75° C. was performed (table 3B). Afterwards, 7.43 μL of mix B was added (table 3C) and the reverse transcription step was initiated (table 3D) to generate cDNA.
(§4) Finally, a RT-qPCR mix was prepared, mix C (table 4A), and 22.02 μL/well was dispensed in 96-well LightCycler qPCR plates to which 3 μL of cDNA was added and the qPCR was performed according to the conditions in table 4B on a LightCycler 480.
(§5) Using the LightCycler software and an in-house LIMS system, dose response curves for each compound were calculated and the half maximal effective concentration (EC50) and the half maximal cytotoxic concentration (CC50) were determined (Tables 5-8).

DENV-2 strain 16681 = experiment: Tetravalent RT-qPCR assay Protocol A, serotype 2; type: cell-based; details: Dengue virus
Description: as §1, §2, §3, §4, §5

DENV-3 strain H87 = experiment: Tetravalent RT-qPCR assay Protocol A, serotype 3; type: cell-based; details: Dengue virus, DENV3, 72 h; RT-qPCR serotype 3 H87, Vero cells, day 3
Description: as §1, §2, §3, §4, §5

DENV-4 strain H241 = experiment: Tetravalent RT-qPCR assay Protocol A, serotype 4; type: cell-based; details: Dengue virus, DENV4, 72 h; RT-qPCR serotype 4 H241, Vero cells, day 3
Description: as §1, §2, §3, §4, §5

in vitro [2] = type: cell-based; details: African green monkey
Description: as §1, §2, §3, §4, §5

Vero cells = details: African green monkey
[3] = DENV2, 72 h, RT-qPCR serotype 2 16681, Vero cells, day 3, read-out: EC50

SMILES | EC50 (DENV-2 16681 strain; Dengue virus, DENV2, Vero, 72 h) [nM] | melting point [°C] | CC50 (in vitro [1]) [nM] | EC50 (DENV-2 16681 strain) [nM] | EC50 (DENV-1 strain TC974#666) [nM] | EC50 (DENV-2 strain 16681; [3]) [nM] | EC50 (DENV-3 strain H87) [nM] | EC50 (DENV-4 strain H241) [nM] | CC50 at 3 days (in vitro [2]) [nM] | CC50 (Vero cells) [nM] | EC50 (DENV-2 strain 16681; DENV2, Vero, 72 h) [nM]
COc1cc(NC(C(=O)N2CCc3c(C)cc(OC(F)(F)F)cc32)c2ccc(Cl)cc2OCCCC(=O)O)cc(-n2cncn2)c1 (racemic) [Compound 16, 4-(5-chloro-2-(1-((3-methoxy-5-(1H-1,2,4-triazol-1-yl)phenyl)amino)-2-(4-methyl-6-(trifluoromethoxy)indolin-1-yl)-2-oxoethyl)phenoxy)butanoic acid] | 0.11 | 214 | 11000 | – | – | – | – | – | – | – | –
COc1cc(NC(C(=O)N2CCc3ccc(C(F)(F)F)cc32)c2ccc(Cl)cc2OCCCC(=O)O)cc(-n2cncn2)c1 (single isomer, unassigned) [Compound 11B] | – | – | – | 0.2 | 0.095 | 0.059 | 6.5 | 20 | > 2500 | 12000 | –
COc1cc(NC(C(=O)N2CCc3ccc(OC(F)(F)F)cc32)c2ccc(Cl)cc2OCCC(C)(C)C(=O)O)cc(-n2cncn2)c1 (single isomer, unassigned) [Compound 14B] | – | – | – | 0.27 | 0.22 | – | 5.5 | 23 | 2300 | 9400 | 0.16
COc1cc(NC(C(=O)N2CCc3c(C)cc(OC(F)(F)F)cc32)c2ccc(Cl)cc2OCCCC(=O)O)cc(-n2cncn2)c1 (single isomer, unassigned) [Compound 16B] | – | – | – | 0.069 | 0.092 | 0.055 | 0.87 | 5.3 | > 1000 | 6200 | –
